In patent publication US6989435B2, “Compounds and methods to inhibit or augment an inflammatory response” (Cambridge University Technical Services Ltd., priority 1997, dated 2006):

Legend:
[1] = test system: TGFβ1 induced human monocyte migration; experiment: Human monocyte migration, TGFβ1 induced; type: cell-based
Method: (§1) Agents may also be screened in a chemotactic assay which employs human neutrophils, eosinophils, mast cells, basophils, platelets, lymphocytes or monocytes. For monocytes, 9 mls of fresh blood are transferred to a tube containing 1 ml of 3.8% sodium citrate, and left at room temperature for 15 minutes. Five mls of this anti-coagulated blood are carefully layered over 3.5 ml Polymorphprep® (Nycomed Pharma, Oslo), and centrifuged at 500 g for 35 minutes per the manufacturer's instructions. The top band at the sample/medium interface contains monocytes. The monocytes are carefully removed with a glass pipette, and reconstituted to the original volume (5 ml). The cells are washed with PBS plus 10% fetal calf serum, and centrifuged at 400 g for 10 minutes. The washing step is repeated three times before the cells are counted. Cells are resuspended at 1×10^7 cells/ml in RPMI-1640+10% fetal calf serum (FCS). The monocytes are cultured for two days at 37° C. in a humidified atmosphere of 5% CO2.
(§2) On day 2, the cells are counted, spun down, and reconstituted to 1×10^7 cells/ml in Gey's balanced salt solution+1 mg/ml bovine serum albumin (BSA). […]

[2] = test system: chemokine-induced THP-1 migration (MCP-1, MIP1α, IL8, SDF1α); experiment: Trans-well THP-1 migration assay, across the chemokines tested; type: cell-based, human
Method: To determine whether an agent inhibits a chemokine-induced activity, such as macrophage recruitment, varying amounts of the agent are mixed with cells in the presence of a known chemoattractant. […] Chemokine (such as MCP-1, MIP1α, IL8 or SDF-1α), at a concentration known to cause significant migration of THP-1 cells in the trans-well migration assay, is placed in the lower compartment (FIG. 1). […] After incubation, the cells are gently removed from the top of the filter with a pipette, 20 μl of 20 mM EDTA in simple PBS is added into each top well, and incubated for 20 minutes at 4° C. The filter is carefully flushed with media using a gentle flow, and removed. […] The media is carefully aspirated from each well, and the converted dye is solubilized by 20 μl of DMSO. Absorbance of converted dye is measured at a wavelength of 595 nm using an ELISA plate reader. The number of migrated cells in each well is then determined by interpolation of the standard curve (see also Imai et al., J. Biol. Chem., 272, 15036 (1997)). […] The framed filter was aligned with the holes in the corner of the filter frame and placed over the wells. Five×10^4 THP-1 cells in 25 μl of RPMI-1640 culture media were added to the upper compartment. Peptides were dissolved in Milli Q water and then serially diluted in culture medium. In most cases, the serially diluted peptides were added to the upper compartment of the chemotaxis chamber. […] After incubation, the cells were gently removed from the top of the filter with a pipette, 20 μl of 20 mM EDTA in PBS was added into each top well, and the mixture was incubated for 20 minutes at 4° C. The filter was then carefully flushed with media using a gentle flow, and removed. […] The media was carefully aspirated from each well, and the converted dye was solubilized by 20 μl of DMSO. Absorbance of converted dye was measured at a wavelength of 595 nm using an ELISA plate reader. […] Representative chemokines included a beta-chemokine (“CC”), MIP-1α, and two alpha-chemokines (“CXC”), IL-8 and SDF-1α. […]

[3] = test system: SDF-1α induced human monocyte migration; experiment: Human monocyte migration, SDF-1α induced; type: cell-based; conditions: Table 4(c); 100 μM peptide; n.s. = no statistically significant inhibition
Method: as §1, §2

[4] = test system: cultured smooth muscle cells; experiment: Co-mitogenic effect of MCP-1 with 0.5% fetal calf serum; type: cell-based; conditions: 100 μM peptide
Method: Many chemokines are co-mitogenic with low concentrations of FCS, e.g., 50 ng/ml MCP-1+0.5% FCS is a mitogen for smooth muscle cells. Assays well known to the art for determination of DNA synthesis induced by any known chemokine plus a low concentration (<5%) of FCS on suitable cells (e.g., smooth muscle cells) in the presence and absence of the agent may be employed to screen agents for such inhibitory activity. See Porreca et al., J. Vasc. Res., 34, 58 (1997), the disclosure of which is incorporated by reference herein.
Peptide 3(1-12)[MCP-1] […] MCP-1 has been reported to be a weak co-mitogen with 0.5% fetal calf serum for cultured smooth muscle cells. […] (SEQ ID NO:1) is an MCP-1 receptor antagonist. The observation that peptide 3(1-12) [MCP-1]

EICADPKQKWVQ [Peptide 3]
effect on TGF-beta induced monocyte migration ([1]; 100 μM): did not affect
Extent of inhibition of human monocyte migration at 100 μM, TGFβ1 ([1]; Table 4(c), 100 μM peptide, n.s. = no statistically significant inhibition): n.s.
inhibition of migration induced by any of the chemokines of either family ([2]; 100 μM, THP-1): > 99%
CC SPECIFICITY ([2]; Table 7, average inhibitory ED50 versus SDF1 and IL8 divided by average inhibitory ED50 versus MCP-1 and MIP1α): 1.5
Extent of inhibition of human monocyte migration at 100 μM, SDF-1α [3]: 108%
effect on the co-mitogenic effect of MCP-1 for cultured smooth muscle cells [4]: completely abolished
